From US12458605B2, “Lipid nanoparticle” (National University Corporation Hokkaido University, priority 2020, dated 2025)

Tests used:
[1] = test system: spleen; assay: In vivo Fluc activity of FlucmRNA-loaded LNP by in vivo imaging, spleen; conditions: Balb/c mice, FlucmRNA-loaded LNP i.v. 0.1 mg mRNA/kg, 6 hours
Outline: (§1)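 Read-out is average radiance (p/s/cm2/sr, about 560 nm) from whole-animal imaging of liver and spleen 6 h post-dose, after tail-vein luciferin at 1.5 mg/mouse. Dosing was intravenous, 0.1 mg mRNA/kg, in 7-week-old female Balb/c mice.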

[2] = test system: F7; assay: In vivo F7 knockdown, plasma F7 enzyme activity, ICR mice; conditions: i.v. 0.003-0.1 mg siRNA/kg, plasma at 24 hours, compared with LNP of CL4H6 or CL15H6 (FIG. 2)
Experimental: Then, each prepared F7siRNA-loaded lipid nanoparticles were administered to ICR mice (4 weeks old, female) and in vivo F7 knockdown activity was examined.
Specifically, each F7siRNA-loaded lipid nanoparticles were intravenously administered to ICR mice at 0.003-0.1 mg siRNA/kg, and plasma F7 enzyme activity at 24 hours later was measured. Relative plasma F7 enzyme activity (%) of mice administered each F7siRNA-loaded lipid nanoparticles was calculated using plasma F7 enzyme activity of untreated mice as 100%. FIG. 2(B) is the results of intravenous administration of each F7siRNA-loaded lipid nanoparticle at 0.1 mg siRNA/kg.

[3] = pKa of lipid nanoparticles by TNS (section II); format: physicochemical; conditions: F7siRNA-loaded LNP; compared with LNP of straight-chain CL4H6 or CL15H6 (FIG. 1)
Experimental: The pKa of lipid nanoparticles was measured using p-toluidino-2-naphthalenesulfonic acid (TNS). First, TNS (final concentration: 0.75 μM) and lipid nanoparticles (final concentration: […]) were mixed in buffer solution adjusted to each pH. The fluorescence intensity of the prepared mixture was measured with a microplate reader. The highest and lowest values among the measured values were taken as 100% and 0% charge rates respectively, and the pH indicating 50% charge rate was calculated as pKa.

[4] = Nucleic acid encapsulation rate by Ribogreen (section II); format: physicochemical; conditions: for % mRNA encapsulation: NlucmRNA-loaded LNP, 60:10:40:1; for % pDNA encapsulation: pFluc-loaded LNP
Experimental: The encapsulation rates of siRNA, mRNA, and pDNA of lipid nanoparticles were measured using Ribogreen (manufactured by life technologies).

[5] = Average particle size (ζ-Average) and PDI by dynamic light scattering (Zetasizer Nano ZSP); format: physicochemical
Outline: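 Dynamic light scattering of the particles in PBS(−) gave both the polydispersity index and the ζ-Average mean size.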

[6] = test system: liver; assay: In vivo Fluc activity of FlucmRNA-loaded LNP by in vivo imaging, liver; conditions: Balb/c mice, FlucmRNA-loaded LNP i.v. 0.1 mg mRNA/kg, 6 hours
Outline: as §1

[7] = siRNA/mRNA encapsulation rate by Ribogreen reagent (section IV); format: physicochemical; conditions: for % siRNA encapsulation: F7siRNA-loaded LNP, 50:10:38.5:1.5, N/P ratio 6; for % mRNA encapsulation: FlucmRNA-loaded LNP, 50:10:38.5:1.5
Outline: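 Encapsulation % was calculated as (total − surface nucleic acid)/total × 100, with both values measured by RiboGreen fluorescence at 485/528 nm. Total RNA was read on LNPs lysed with 1% Triton X-100 at 1.2 μg/mL, and surface RNA on intact LNPs at 8 μg/mL in TE buffer. Concentrations came from a 0-2.5 μg/mL Triton-containing calibration curve.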

[8] = Zeta potential in 10 mM HEPES buffer (pH 7.4); format: physicochemical
Experimental: The average particle size (number-average value) and PDI in PBS(−) and zeta potential in 10 mM HEPES buffer solution (pH 7.4) of lipid nanoparticles were measured using “Zetasizer Nano ZS ZEN3600”, an analyzer utilizing dynamic light scattering (manufactured by Malvern).

[9] = Storage stability of FlucmRNA-loaded LNP at −80, 5, 25 and 40° C.; format: physicochemical; conditions: for period for which quality remained good, −80° C.: maximum storage period 1 week; for period for which quality remained good, 5° C. / period for which quality remained good, 25° C. / period for which quality remained good, 40° C. (weeks): maximum storage period 5 weeks
Outline: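 Reported period is how long all three criteria hold: encapsulation rate at 80% or more, PDI of 0.2 or less, and mean particle size within +/−20 nm of day-of-preparation value. Particle size, PDI and nucleic acid encapsulation were tracked over time at storage temperatures of −80, 5, 25 and 40° C.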

[10] = F7siRNA-loaded LNP, 50:10:38.5:1.5, N/P ratio 6
[11] = FlucmRNA-loaded LNP, 50:10:38.5:1.5
[12] = FlucmRNA-loaded LNP, lipid:DSPC:cholesterol:DMG-PEG2K 50:10:38.5:1.5
[13] = NlucmRNA-loaded LNP, 60:10:40:1

pKa of lipid nanoparticle, compared [3] | % mRNA encapsulation [4] | % pDNA encapsulation ([4]; N/P ratio 6) | % pDNA encapsulation ([4]; N/P ratio 9) | PDI [5, 10] | ζ-Average (nm) [5, 10] | PDI [5, 11] | ζ-Average (nm) [5, 12] | % siRNA encapsulation [7] | % mRNA encapsulation [7] | ζ-potential (mV) [8, 13] | ζ-potential (mV) ([8]; pFluc-loaded LNP, N/P ratio 6) | ζ-potential (mV) ([8]; pFluc-loaded LNP, N/P ratio 9) | period for which quality remained good, −80° C. [9] | period for which quality remained good, 5° C. [9] | period for which quality remained good, 25° C. [9] | period for which quality remained good, 40° C. (weeks) [9] | SMILES | Fluc Activity in spleen [1] | in vivo F7 knockdown activity, compared [2] | Fluc Activity in liver [6]
lower pKa | 91.7% | 97.6% | 94.5 ± 3.6% | 0.048 | 85.14 nm | 0.030 | 81.21 nm | 100.1% | 99.8% | −1.76 mV | −2.46 mV | −1.3 ± 0.7 mV | 1 week | 5 weeks | 5 weeks | 5 weeks | CCCN(CCC)CCCCC(O)(CCCCCCOC(=O)C(CCC(C)CC(C)(C)C)C(C)CC(C)(C)C)CCCCCCOC(=O)C(CCC(C)CC(C)(C)C)C(C)CC(C)(C)C (stereo not shown) [CL4G6, 7-(4-(dipropylamino)butyl)-7-hydroxytridecan-1,13-diyl bis(2-(4.4-dimethylpentan-2-yl)-5,7,7-trimethyloctanoate)] | 2.08E+06 Avg Radiance [p/s/cm2/sr] | equivalent in vivo F7 knockdown activity | 4.58E+07 Avg Radiance [p/s/cm2/sr]
lower pKa | 90.3% | 95.4% | 93.1 ± 3.3% | 0.044 | 105.9 nm | 0.002 | 115.50 nm | 100.5% | 99.69% | −2.16 mV | −2.02 mV | −1.2 ± 0.4 mV | 1 week | 5 weeks | 5 weeks | 5 weeks | CCCCCCCCC(CCCCCC)C(=O)OCCCCCCC(O)(CCCCCCOC(=O)C(CCCCCC)CCCCCCCC)CCCCOC(=O)C1CCN(C)CC1 (stereo not shown) [CL15F6] | 5.76E+06 Avg Radiance [p/s/cm2/sr] | equivalent in vivo F7 knockdown activity | 6.28E+06 Avg Radiance [p/s/cm2/sr]
